Assay results as given in PubChem BioAssay (NCI).
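Briefly, cells in 96-well plates were exposed to five compound concentrations for 48 h, and endpoints were estimated by linear interpolation. At the GI50, growth is halved. TGI marks complete inhibition of growth.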

Legend:
Test in all cases: inhibition of tumour cell growth, NCI panel, 48 h
SF-539 CNS = system: SF-539 CNS
T-47D breast = system: T-47D breast
DU-145 prostate = system: DU-145 prostate
SK-MEL-5 melanoma = system: SK-MEL-5 melanoma
HCT-116 colon = system: HCT-116 colon
UACC-62 melanoma = system: UACC-62 melanoma
EKVX NSCLC = system: EKVX NSCLC
HL-60(TB) leukemia = system: HL-60(TB) leukemia
HT29 colon = system: HT29 colon
A498 renal = system: A498 renal

## COc1c2occc2cc2ccc(=O)oc12
SF-539 CNS
  TGI: > 100 µM
T-47D breast
  TGI: > 100 µM
DU-145 prostate
  TGI: > 100 µM
SK-MEL-5 melanoma
  TGI: > 100 µM
HCT-116 colon
  TGI: > 100 µM
UACC-62 melanoma
  TGI: > 100 µM
EKVX NSCLC
  GI50: 96.9 µM
  TGI: > 100 µM
HL-60(TB) leukemia
  TGI: > 100 µM
HT29 colon
  GI50: > 100 µM
  TGI: > 100 µM
A498 renal
  TGI: > 100 µM

## CCOC(=O)C1=C(C)N(C2OC(COC(C)=O)C(OC(C)=O)C(OC(C)=O)C2OC(C)=O)C(=O)NC1c1ccccc1 (stereo not given)
SF-539 CNS
  TGI: > 100 µM
SK-MEL-5 melanoma
  TGI: > 100 µM
HCT-116 colon
  TGI: > 100 µM
UACC-62 melanoma
  TGI: > 100 µM
EKVX NSCLC
  TGI: > 100 µM
HL-60(TB) leukemia
  TGI: > 100 µM
HT29 colon
  TGI: > 100 µM
A498 renal
  TGI: > 100 µM

## C=CCOC1OC(CS(=O)(=O)O)C(OC(C)=O)C(OC(C)=O)C1OC(C)=O (stereo not given)
T-47D breast
  TGI: > 100 µM
DU-145 prostate
  TGI: > 100 µM
SK-MEL-5 melanoma
  TGI: > 100 µM
HCT-116 colon
  TGI: > 100 µM
UACC-62 melanoma
  TGI: > 100 µM
HL-60(TB) leukemia
  TGI: > 100 µM
HT29 colon
  TGI: > 100 µM
A498 renal
  TGI: > 100 µM

## CCCCCCCCCC[N+](C)(C)C
SF-539 CNS
  GI50: 2.17 µM
  TGI: 5.9 µM
T-47D breast
  GI50: 1.91 µM
  TGI: 8.33 µM
DU-145 prostate
  GI50: 1.94 µM
  TGI: 4.88 µM
SK-MEL-5 melanoma
  GI50: 1.73 µM
  TGI: 3.26 µM
HCT-116 colon
  GI50: 2.34 µM
  TGI: 10.5 µM
UACC-62 melanoma
  GI50: 1.69 µM
  TGI: 4.59 µM
EKVX NSCLC
  GI50: 3.66 µM
  TGI: 30.5 µM
HL-60(TB) leukemia
  GI50: 0.874 µM
  TGI: 2.59 µM
HT29 colon
  GI50: 0.505 µM
  TGI: 2.17 µM
A498 renal
  GI50: 1.78 µM
  TGI: 7.81 µM

## c1ccc(N2N=C3N(c4ccccc4)C2N3c2ccccc2)cc1
SF-539 CNS
  TGI: 74.9 µM
T-47D breast
  TGI: > 100 µM
DU-145 prostate
  TGI: > 100 µM
SK-MEL-5 melanoma
  TGI: 63.4 µM
HCT-116 colon
  TGI: > 100 µM
UACC-62 melanoma
  TGI: 80.2 µM
EKVX NSCLC
  TGI: > 100 µM
HL-60(TB) leukemia
  TGI: > 100 µM
HT29 colon
  TGI: > 100 µM
A498 renal
  TGI: > 100 µM

## COc1ccc(OCC(C)(C)O)cc1
SF-539 CNS
  TGI: > 100 µM
SK-MEL-5 melanoma
  TGI: > 100 µM
HCT-116 colon
  TGI: > 100 µM
UACC-62 melanoma
  TGI: > 100 µM
EKVX NSCLC
  TGI: > 100 µM
HL-60(TB) leukemia
  TGI: > 100 µM
HT29 colon
  TGI: > 100 µM
A498 renal
  TGI: > 100 µM

## CC(=O)OCc1nnn2c1CCC2
SF-539 CNS
  TGI: > 100 µM
SK-MEL-5 melanoma
  TGI: > 100 µM
HCT-116 colon
  TGI: > 100 µM
UACC-62 melanoma
  TGI: > 100 µM
EKVX NSCLC
  TGI: > 100 µM
HL-60(TB) leukemia
  TGI: > 100 µM
HT29 colon
  TGI: > 100 µM

## CCCCn1c(C)c2c(c1C)C(=O)N(CCN1CCN(c3ccccc3Cl)CC1)C2=O
SF-539 CNS
  TGI: 38 µM
T-47D breast
  TGI: 75 µM
DU-145 prostate
  TGI: > 100 µM
SK-MEL-5 melanoma
  TGI: 34.9 µM
HCT-116 colon
  TGI: 34.3 µM
UACC-62 melanoma
  TGI: > 100 µM
EKVX NSCLC
  TGI: > 100 µM
HL-60(TB) leukemia
  TGI: 51 µM
HT29 colon
  TGI: 31 µM
A498 renal
  TGI: > 100 µM

## CCCCCCC(=O)c1ccc2ccccc2c1O
SF-539 CNS
  TGI: > 100 µM
T-47D breast
  TGI: > 100 µM
DU-145 prostate
  TGI: 92.6 µM
SK-MEL-5 melanoma
  TGI: > 100 µM
HCT-116 colon
  TGI: > 100 µM
UACC-62 melanoma
  TGI: > 100 µM
EKVX NSCLC
  TGI: > 100 µM
HL-60(TB) leukemia
  TGI: > 100 µM
HT29 colon
  TGI: > 100 µM
A498 renal
  TGI: > 100 µM

## CCOC(=O)/C=C/c1c[nH]c(=O)[nH]c1=O
SF-539 CNS
  TGI: > 75 µM
SK-MEL-5 melanoma
  TGI: > 75 µM
HCT-116 colon
  TGI: > 75 µM
UACC-62 melanoma
  TGI: > 75 µM
EKVX NSCLC
  TGI: > 75 µM
HL-60(TB) leukemia
  TGI: > 75 µM
HT29 colon
  TGI: > 75 µM
A498 renal
  TGI: > 75 µM

## COc1ccc(-c2c3c(nc4[nH]c(=S)[nH]c(=S)c24)CCCC3)cc1OC
SF-539 CNS
  TGI: 28.6 µM
T-47D breast
  TGI: > 100 µM
DU-145 prostate
  TGI: > 100 µM
SK-MEL-5 melanoma
  TGI: 32.6 µM
HCT-116 colon
  TGI: > 100 µM
UACC-62 melanoma
  TGI: 37.5 µM
EKVX NSCLC
  TGI: 76.9 µM
HL-60(TB) leukemia
  TGI: > 100 µM
HT29 colon
  TGI: > 100 µM
